# Reference: article PMC11668362, “On the function of TRAP substrate-binding proteins: the isethionate-specific binding protein IseP” (Biochemical Journal, 2024)
# pKd: −log10 of the molar value.
# Molecular target: T1, OaIseP (isethionate-specific TRAP substrate-binding protein IseP) (Oleidesulfovibrio alaskensis, UniProt Q312S0)
# Assay: X-ray crystal structure ([…] Å), open conformation; no significant DSF shift at […]
# Design: gene dctP
# Conditions: not given
# Target sequence in this assay (Q312S0 24-336 limits assumed): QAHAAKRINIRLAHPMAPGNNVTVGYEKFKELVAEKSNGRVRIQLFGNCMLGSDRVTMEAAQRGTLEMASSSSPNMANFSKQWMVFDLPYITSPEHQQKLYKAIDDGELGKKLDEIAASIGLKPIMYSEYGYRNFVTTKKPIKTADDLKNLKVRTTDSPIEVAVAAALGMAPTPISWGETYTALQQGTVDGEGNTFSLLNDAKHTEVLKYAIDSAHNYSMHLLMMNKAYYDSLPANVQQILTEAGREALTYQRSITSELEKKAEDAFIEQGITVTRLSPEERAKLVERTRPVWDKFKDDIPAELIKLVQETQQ
row,SMILES,"X-ray crystal structure (1.89 Å), open conformation; no significant DSF shift at"
1,"O=S(=O)(O)CCN1CCN(CCO)CC1 [HEPES, 4-(2-hydroxyethyl)-1-piperazineethanesulfonic acid]",we were able to confidently model HEPES and MES buffer constituents from the crystallisation conditions into the densities

# Molecular target: T1, OaIseP (isethionate-specific TRAP substrate-binding protein IseP)
# Assay: biochemical
# Design: gene dctP
# Conditions: not given
# Target sequence in this assay (Q312S0 24-336 limits assumed): as above
row,pKd,SMILES
1,6.02,"O=S(=O)(O)CCO [isethionate, 2-hydroxyethane sulfonate]"

# Molecular target: T1, OaIseP (isethionate-specific TRAP substrate-binding protein IseP)
# Assay: not given
# Design: gene dctP; without the native signal peptide; N-terminal His-tag removed with HRV 3C protease; DSF thermal shift with SYPRO Orange, PM4A Biolog compound screen, change of derivative melting temperature
# Conditions: PM4A Biolog screen, compound concentration not disclosed; binder
# Target sequence in this assay (Q312S0 24-336): as the sequence (Q312S0 24-336 limits assumed) above
row,SMILES,ΔTmD (°C)
1,CSC[C@H](N)C(=O)O [S-methyl-L-cysteine],-0.41 ± 0.48
2,CS(=O)(=O)CC[C@H](N)C(=O)O [L-methionine sulfone],0.44 ± 0.13
3,N[C@@H](CS(=O)O)C(=O)O [L-cysteine sulfinate],0.53 ± 0.00
4,N[C@@H](CCC(=O)N[C@@H](CS)C(=O)NCC(=O)O)C(=O)O [glutathione],-0.67 ± 0.37
5,O=P(O)(O)OC1O[C@H](CO)[C@@H](O)[C@H](O)[C@@H]1O (stereo partly drawn) [D-mannose-1-phosphate],0.69 ± 0.31
6,N[C@@H](CCSC[C@H](N)C(=O)O)C(=O)O [cystathionine],0.61 ± 0.21
7,N[C@H](Cc1ccc(OP(=O)(O)O)cc1)C(=O)O [O-phospho-D-tyrosine],0.87 ± 0.11
8,O=P(O)(O)OC[C@H]1OC(O)[C@@H](O)[C@@H](O)[C@@H]1O (stereo partly drawn) [D-mannose-6-phosphate],-0.09 ± 0.47
9,O=C(O)COP(=O)(O)O [phospho-glycolic acid],0.31 ± 0.21
10,C[S+]([O-])CC[C@H](N)C(=O)O (stereo partly drawn) [L-methionine sulfoxide],0.29 ± 0.11
11,O=P(O)(O)O[C@H]1[C@H](OP(=O)(O)O)[C@@H](OP(=O)(O)O)[C@H](OP(=O)(O)O)[C@@H](OP(=O)(O)O)[C@H]1OP(=O)(O)O [inositol hexaphosphate],0.46 ± 0.33
12,CS(=O)(=O)O [methane sulfonic acid],0.23 ± 0.28
13,N[C@H](CS)C(=O)O [D-cysteine],1.14 ± 0.17
14,NC(N)=S [thiourea],-0.73 ± 0.31
15,N[C@@H](CS)C(=O)O [L-cysteine],-0.68 ± 0.11
16,N[C@H](COP(=O)(O)O)C(=O)O [O-phospho-D-serine],0.05 ± 0.42
17,CSCC[C@H](NC(=O)CN)C(=O)O [Gly-Met],-0.01 ± 0.18
18,O=C[C@H](O)[C@@H](O)[C@H](O)[C@H](O)COP(=O)(O)O [D-glucose-6-phosphate],-0.85 ± 0.37
19,CSCC[C@@H](N)C(=O)O [D-methionine],-0.62 ± 0.38
20,NCCS(=O)O [hypotaurine],-0.68 ± 0.46
21,O=S1(=O)CCCC1 [tetramethylene sulfone],0.23 ± 0.11
22,N[C@@H](CS)C(=O)NCC(=O)O [Cys-Gly],1.14 ± 0.17
23,N[C@@H](CSCSC[C@H](N)C(=O)O)C(=O)O [L-djenkolic acid],-0.32 ± 0.28

# Other lines, results leading:
row,ΔTmD (°C),SMILES
1,-0.46 ± 0.10,N[C@@H](CSC[C@H](N)C(=O)O)C(=O)O [lanthionine]
2,-0.63 ± 0.24,C=C(OP(=O)(O)O)C(=O)O [phosphoenolpyruvate]
3,-0.62 ± 0.28,C[C@@H](OP(=O)(O)O)[C@H](N)C(=O)O [O-phospho-L-threonine]
4,-0.49 ± 0.28,NC(=O)OP(=O)(O)O [carbamoyl phosphate]
5,0.11 ± 0.28,N[C@@H](CS(=O)(=O)O)C(=O)O [L-cysteic acid]
6,0.60 ± 0.38,NC(=O)CCCCC1CCSS1 (racemic) [DL-lipoamide]
7,6.52 ± 0.18,"O=S(=O)(O)CCO [isethionate, 2-hydroxyethane sulfonate]"
8,-0.73 ± 0.33,N[C@@H](Cc1ccc(OP(=O)(O)O)cc1)C(=O)O [O-phospho-L-tyrosine]
9,0.41 ± 0.46,CCCCS(=O)(=O)O [butane sulfonate]
10,0.35 ± 0.00,NCCS [cysteamine]
11,0.92 ± 0.26,O=P(O)(O)O[C@H]1O[C@H](CO)[C@@H](O)[C@H](O)[C@H]1O [D-glucose-1-phosphate]
12,-0.64 ± 0.24,CC(=O)N[C@@H](CS)C(=O)O [N-acetyl-L-cysteine]
13,-0.92 ± 0.37,CSCC[C@H](N)C(=O)O [L-methionine]
14,0.41 ± 0.40,CN(CC(=O)O)C(=N)NP(=O)(O)O [phospho-creatine]
15,-0.30 ± 0.29,O=P(O)(O)OC(CO)CO [b-glycerol phosphate]

# Molecular target: T1, OaIseP (isethionate-specific TRAP substrate-binding protein IseP)
# Assay: X-ray crystal structure ([…] Å), open conformation; no significant DSF shift at […]
# Design: gene dctP
# Conditions: not given
# Remark: another data set of the same source
# Target sequence in this assay (Q312S0 24-336 limits assumed): as above
row,SMILES,"X-ray crystal structure (1.65 Å), open conformation; no significant DSF shift at"
1,"O=S(=O)(O)CCN1CCOCC1 [MES, 2-(N-morpholino)ethanesulfonic acid]","In both HEPES- and MES-bound structures, the sulfonate groups form a salt bridge to Arg177"
